# System: 5/6 Nephrectomy induced chronic kidney disease (CKD)
# Assay: 5/6 Nephrectomy induced chronic kidney disease in rat
# Assay type: in vivo, rat (male Wistar)
# Conditions: 5/6 nephrectomy rats, mean; for Serum Analysis BUN / Serum Analysis Creatinine / Serum Analysis IL-6 / Urine Analysis Glomerular Filtration Rate: daily p.o. treatment for 10 weeks, end of 10th week; for % Decreased Creatinine / % Decreased in BUN / % Decreased in IL-6: serum; for % Decreased Creatinine / % Decreased in BUN / % Decreased in IL-6 / % Increased GFR: daily p.o. 10 weeks; for % Increased GFR: urine analysis
# Experimental: Screening effect against 5/6 Nephrectomy induced chronic kidney disease (CKD) of synergistic combination or composition/formulation comprising PEA and other natural ingredients in rat. The following trials were carried out:
# 54 male Wistar rats (Rat Rattus) (6 per group) were maintained in animal house in a light/dark atmosphere based on a 12 hour cycle having temperature and relative humidity in the range of 25±2° C. and 30-70% respectively. To maintain the appropriate conditions, temperature and relative humidity were recorded three times daily. During complete experiment, animals were supplied with the standard certified rat pellet feed (manufactured by Keval sales corporation, Vadodara) and drinking water treated by the reverse osmosis ad libitum.
# In order to evaluate the activity against chronic kidney disease, fifty four (54) male rats were screened and divided in to nine groups. For a comparative analysis, groups were divided as sham control (Group 1), disease control (Group 2), treatment groups with individual components (Group 3, Group 4, Group 5 and Group 6 as PEA, Cholecalciferol, Quercetin and Resveratrol respectively), test composition formulation of the present invention (Group 7 and Group 8 as PEA combinations) and reference standard drug (Group 9).
# The animals under consideration were examined for a study period of 10 weeks and two-stage surgical procedure for kidney ligation and removal were performed.
# Stage one: A ventral midline incision into the abdomen was made to expose the animal's left kidney, and the organ was freed from the surrounding tissue. A piece of suture was placed and ligated around each pole of the kidney at its one-third position. The one-third kidney on each pole was excised beyond the ligatures and the abdominal incision was closed.
# Stage two: This procedure was performed 5-7 days after stage one. The animals were placed in ventral recumbancy and an incision was made parallel to the midline. The abdominal cavity was entered and the right kidney was made free from the surrounding tissue. The kidney was gently pulled out from the incision, and the adrenal gland was freed and replaced into the abdominal cavity. The renal blood vessels and the ureter were ligated or cauterized. The kidney was then removed by transecting the vessels and ureter just distal to the ligature or cauterized section. The skin incision was closed with wound clips.
# Treatment. All treatment groups were treated on daily basis for 10 weeks after stage two of surgery. After completion of the study at the end of 10th week, each group was analyzed in terms of the evaluating parameters such as blood collection, biochemistry analysis, urine analysis and histopathology of kidney.
smiles,measurement,value
CCCCc1nc(Cl)c(CO)n1Cc1ccc(-c2ccccc2-c2nn[nH]n2)cc1 [Losartan],Serum Analysis BUN,52.81 mg/dL
same,Serum Analysis Creatinine,1.22 mg/dL
same,Serum Analysis IL-6,141.67 pg/mL
same,Urine Analysis Glomerular Filtration Rate,6.80 mL/min/kg
same,% Decreased Creatinine,18.98%
same,% Decreased in BUN,35.80%
same,% Decreased in IL-6,21.58%
same,% Increased GFR,23.64%
Oc1ccc(C=Cc2cc(O)cc(O)c2)cc1 [Resveratrol],Serum Analysis BUN,74.51 mg/dL
same,Serum Analysis Creatinine,1.41 mg/dL
same,Serum Analysis IL-6,174.42 pg/mL
same,Urine Analysis Glomerular Filtration Rate,5.75 mL/min/kg
same,% Decreased Creatinine,6.30%
same,% Decreased in BUN,9.42%
same,% Decreased in IL-6,3.45%
same,% Increased GFR,4.55%
O=c1c(O)c(-c2ccc(O)c(O)c2)oc2cc(O)cc(O)c12 [Quercetin],Serum Analysis BUN,76.62 mg/dL
same,Serum Analysis Creatinine,1.44 mg/dL
same,Serum Analysis IL-6,175.15 pg/mL
same,Urine Analysis Glomerular Filtration Rate,5.64 mL/min/kg
same,% Decreased Creatinine,4.02%
same,% Decreased in BUN,6.85%
same,% Decreased in IL-6,3.04%
same,% Increased GFR,2.55%
C=C1CC[C@H](O)C/C1=C/C=C1\CCC[C@]2(C)[C@@H]([C@H](C)CCCC(C)C)CC[C@@H]12 [Cholecalciferol],Serum Analysis BUN,75.63 mg/dL
same,Serum Analysis Creatinine,1.40 mg/dL
same,Serum Analysis IL-6,178.45 pg/mL
same,Urine Analysis Glomerular Filtration Rate,5.65 mL/min/kg
same,% Decreased Creatinine,7.02%
same,% Decreased in BUN,8.05%
same,% Decreased in IL-6,1.22%
same,% Increased GFR,2.73%
"CCCCCCCCCCCCCCCC(=O)NCCO [PEA, Palmitoylethanolamide]",Serum Analysis BUN,60.98 mg/dL
same,Serum Analysis Creatinine,1.12 mg/dL
same,Serum Analysis IL-6,162.18 pg/mL
same,Urine Analysis Glomerular Filtration Rate,6.50 mL/min/kg
same,% Decreased Creatinine,25.63%
same,% Decreased in BUN,25.87%
same,% Decreased in IL-6,10.22%
same,% Increased GFR,18.18%

# From patent US10973782B2, “Pharmaceutical composition for improving or preventing progression of chronic kidney disease” (Frimline Private Limited, priority 2017, dated 2021)
